Source: patent publication US20100266503A1, “Breast Cancer Methods, Medicaments and Agents” (priority 2007, published 2010)
Non-standard residues stand in square brackets, D forms with d. Residues, ends and D or L forms follow the SMILES beside them. *: point of attachment. Nle = CCCC[C@H](N)C(=O)O; Cbz = O=C(OCc1ccccc1)*

Assays:
Assay type in all cases: cell-based
[1] = tested on: MCF-10A cells; assay: SRB proliferation of GSI1 on normal cell line MCF-10A
Description: Graphs illustrating the effects of GSI1, at different concentrations, on proliferation in four normal cell lines: (A) MCF-10A cells, (B) MCF-10A, (C) L226U19 cells and (D) L226TS4 cells.
The effect of GSI1 on proliferation in normal cell lines was investigated as, illustrated in FIG. 8. […] Therefore we repeated in all 3 normal lines (MCF-10A, L226U19 and L226TS4) at much higher concentrations (10 μM, 20 μM, 40 μM, 60 μM and 80 μM). 10 μM GSI1 was required to kill the MCF-10A cells and over 40 μM GSI1 was required to kill the two L226 cell lines. MCF-10A cells were cultured in DMEM (Invitrogen 11995-040), […] Insulin (Sigma, 11882), 20 ng/ml hEGF (Trevigen, 3443-050-01), 100 ng/ml Cholera Toxin (Sigma, C8052), 500 ng/ml Hydrocortisone (Sigma, H0888), 5% Horse Serum +100U/m1 penicillin, 0.1 mg/ml streptomycin, 2 mM L-glutamine at 37° C. in 5% CO2. L226U19 and TS4 cells were cultured in DME: F12 plus 10% FCS, 5 μg/ml insulin, 1 μg/ml Hydrocortisone, 10 ng/ml hEGF, 10 ng/ml Cholera toxin 100 U/ml penicillin, 0.1 mg/ml streptomycin, 2 mM L-glutamine at 37° C. in 5% CO2.

[2] = tested on: CD44 in ZR75-1 and MCF10A cells; assay: CD44 immunofluorescence staining after GSI1; settings: GSI1 750 nM
Source text: Stained sections of the breast cancer cell line ZR75-1 (A-D) and the normal cell line (E-H) showing effect of GSI1 on CD44 concentration. Upper sections (A, B, E and F) show cells treated with GSI1. Lower sections (C, D, G and H) show untreated cells. Sections were stained with an anti CD44 primary antibody and a fluorescently labeled secondary antibody to detect CD44. Nuclei were counterstained with DAPI, as shown in panels A, C, E and G.
In order to understand the mechanism of how GS inhibition by GSI1 leads to cell death, we investigated the effect of GS inhibition on CD44 expression which is a substrate for GS and is a cell adhesion molecule. […] The effect of GSI1 on CD44 expression was investigated in one cancer, ZR75-1, and one normal, MCF10A, cell line±GSI1 (at 750 nM i.e. inhibitory dose) (FIG. 9). We used an anti CD44 primary antibody and a fluorescently labelled secondary antibody to detect the CD44. Specifically, the CD44 antibody was a FITC conjugated antibody (BD Biosciences) that was used at a 1:40 dilution. The antibody was incubated for 60 mins at room temperature after fixing in formalin. Nuclei were counterstained with DAPI. […] Thus the inhibitor was not causing the cells to become detached from the plates and die.

[3] = tested on: MDA-MB-231, T47D and MCF-7 cells; assay: Annexin V staining / full cell cycle analysis by FACS after GSI1
Description: We next did Annexin V staining which is a marker of apoptosis. Cells were treated with GSI1 for 0, 7, 24 and 48 hours. After trypsinizing, the cells were washed with PBS 5 times and then treated with RNAase (100 μg/ml) for 20 mins then propidium iodide was added at 50 μg/ml per 1×10^7 cells, and incubated overnight at 4° C. The samples were then filtered through a 70 μm mesh and run on a FACS with the following settings: Forward scatter 113, side scatter 356 and PE setting 380. Although there was an increase in staining indicating apoptosis, this was only approximately 10%. For example, in MDA-MB-231 cells there was a 5% increase in Annexin V staining after 7 hours of treatment and in T47D and MCF-7 cells there was an 8% increase in Annexin V staining. We have repeated these experiments with full cell cycle analysis at 7, 24 and 48 h post treatment and again detect apoptosis but […]. […] Nevertheless it is likely that cell proliferation is inhibited via another mechanism as opposed to the induction of cellular death.

[4] = tested on: GS components, Notch 1, Actin and Lamin A/C in a single breast cancer cell line; assay: Western blot of protein levels after GSI1; settings: 750 nM GSI1 vs DMSO control
Description: Western blot analysis of GS components, Notch 1, Actin and Lamin A/C in response to DMSO control (1) or 750 nm GSI1 (2). Tubulin was used as a loading control.
FIG. 10 illustrates the effect of GSI1 on the protein levels of the GS components and of Notch 1, Actin and Lamin A/C in a single breast cancer cell line. Shown, are Western blots of the proteins in reponse to treatment with GSI1 (750 nM) or DMSO control. All antibodies were from Abcam unless otherwise stated. Notch1 (Mouse) 1:500, Nicastrin rabbit 1:500, Pen-2 rabbit 1:1000, Presenilin, Goat 1:200, APH-1A Rabbit, 1:500, APH-1B Rabbit, 1:1000, Actin Mouse, 1:20,000(Santa Cruz), Tubulin, Mouse, 1:1000 (Sigma), Lamin NC 1:5000 (Santa Cruz). Secondary Antibodies used were goat anti mouse horseradish peroxidase (Sigma) 1:5000, goat anti-rabbit horseradish peroxidase (Sigma 1:10000) and donkey anti-goat horseradish peroxidase (Sigma 1:5000). Although GSI1 had some effects on protein expression these were marginal apart from Notch 1.

[5] = tested on: notch intracellular domain in MCF-7 cells; assay: Staining for notch intracellular domain expression (surrogate marker for GS activity); settings: 48 hours; Gefitinib 15 μM, U0126 10 μM, PD98059 10 μM
Source text: (A) GS activity as measured by a fluorescent assay in MCF7 breast cancer cell lines and MCF10A normal cell lines, with and without treatment with the ERK1/2 inhibitor U0126. (B) Sections of MCF7 breast cancer cell lines stained for notch intracellular domain expression (as a surrogate marker for GS activity). Shown are sections of cells untreated (NO), and cells treated with oestrogen (E2), faslodex (FAS), Gefitinib (Gef), GSI1, and the ERK1/2 inhibitors U0126 (U) and. PD98059 (PD). (C) Sections of MCF10A normal cell lines stained for notch intracellular domain expression. Shown are sections of cells untreated (NO), and cells treated with Gefitinib (Gef) and PD98059 (PD).
Cancer and normal cell lines were treated with oestrogen (E2), faslodex (FAS), Gefitinib (Gef 15 μM), GSI1, and the ERK1/2 inhibitors U0126 (U) (10 μM) and PD98059 (PD) (10 μM) for 48 hours and a fluorescent assay performed to measure GS activity. The figures show relative fluorescence therefore the amount of fluorescence in the treated cells relative to the untreated minus background (these figures are corrected for background).

SMILES: CCCC[C@@H](C=O)NC(=O)[C@H](CC(C)C)NC(=O)[C@H](CC(C)C)NC(=O)OCc1ccccc1 [GSI1, Z-Leu-Leu-Nle-CHO] (Cbz-Leu-Leu-[Nle]-aldehyde)
- effect on proliferation ([1]; GSI1 100 nM to 10 μM): no effect on proliferation
- concentration required to kill the cells ([1]; repeat at 10-80 μM): 10 µM
- CD44 expression [2]: up-regulation of CD44
- apoptosis level in full cell cycle analysis ([3]; 7, 24 and 48 h post treatment, higher concentration of GSI): > 25%
- cell cycle status ([3]; higher concentration of GSI): majority of cells were in G2/M Cell cycle arrest
- increase in Annexin V staining indicating apoptosis ([3]; treated 0, 7, 24 and 48 hours): approximately 10%
- Notch 1 protein expression [4]: markedly upregulated
- protein expression other than Notch 1 (GS components, Actin, Lamin A/C) [4]: only marginal effects on protein expression
- notch intracellular domain expression localized to the nucleus compared to untreated cells [5]: appear to increase notch intracellular domain expression localized to the nucleus
